Patent US20220281841A1, “ETHYNYLHETEROCYCLES AS RHO-ASSOCIATED COILED-COIL KINASE (ROCK) INHIBITORS” (Angion Biomedica Corp., priority 2019, published 2022)
Structures can show the parent of a compound that is named as a salt.

Key:
[1] = target: T1, ROCK1 (Homo sapiens, UniProt Q13464); assay: ROCK1 kinase binding affinity, DiscoverX KINOMEscan KdELECT; conditions: equilibrium dissociation constant, 11-point 3-fold dilution series
T1 construct: purchased DiscoverX (KINOMEscan KdELECT service); host or cells: E. coli BL21-derived (T7 phage) or HEK-293
T1 sequence (Q13464 whole entry): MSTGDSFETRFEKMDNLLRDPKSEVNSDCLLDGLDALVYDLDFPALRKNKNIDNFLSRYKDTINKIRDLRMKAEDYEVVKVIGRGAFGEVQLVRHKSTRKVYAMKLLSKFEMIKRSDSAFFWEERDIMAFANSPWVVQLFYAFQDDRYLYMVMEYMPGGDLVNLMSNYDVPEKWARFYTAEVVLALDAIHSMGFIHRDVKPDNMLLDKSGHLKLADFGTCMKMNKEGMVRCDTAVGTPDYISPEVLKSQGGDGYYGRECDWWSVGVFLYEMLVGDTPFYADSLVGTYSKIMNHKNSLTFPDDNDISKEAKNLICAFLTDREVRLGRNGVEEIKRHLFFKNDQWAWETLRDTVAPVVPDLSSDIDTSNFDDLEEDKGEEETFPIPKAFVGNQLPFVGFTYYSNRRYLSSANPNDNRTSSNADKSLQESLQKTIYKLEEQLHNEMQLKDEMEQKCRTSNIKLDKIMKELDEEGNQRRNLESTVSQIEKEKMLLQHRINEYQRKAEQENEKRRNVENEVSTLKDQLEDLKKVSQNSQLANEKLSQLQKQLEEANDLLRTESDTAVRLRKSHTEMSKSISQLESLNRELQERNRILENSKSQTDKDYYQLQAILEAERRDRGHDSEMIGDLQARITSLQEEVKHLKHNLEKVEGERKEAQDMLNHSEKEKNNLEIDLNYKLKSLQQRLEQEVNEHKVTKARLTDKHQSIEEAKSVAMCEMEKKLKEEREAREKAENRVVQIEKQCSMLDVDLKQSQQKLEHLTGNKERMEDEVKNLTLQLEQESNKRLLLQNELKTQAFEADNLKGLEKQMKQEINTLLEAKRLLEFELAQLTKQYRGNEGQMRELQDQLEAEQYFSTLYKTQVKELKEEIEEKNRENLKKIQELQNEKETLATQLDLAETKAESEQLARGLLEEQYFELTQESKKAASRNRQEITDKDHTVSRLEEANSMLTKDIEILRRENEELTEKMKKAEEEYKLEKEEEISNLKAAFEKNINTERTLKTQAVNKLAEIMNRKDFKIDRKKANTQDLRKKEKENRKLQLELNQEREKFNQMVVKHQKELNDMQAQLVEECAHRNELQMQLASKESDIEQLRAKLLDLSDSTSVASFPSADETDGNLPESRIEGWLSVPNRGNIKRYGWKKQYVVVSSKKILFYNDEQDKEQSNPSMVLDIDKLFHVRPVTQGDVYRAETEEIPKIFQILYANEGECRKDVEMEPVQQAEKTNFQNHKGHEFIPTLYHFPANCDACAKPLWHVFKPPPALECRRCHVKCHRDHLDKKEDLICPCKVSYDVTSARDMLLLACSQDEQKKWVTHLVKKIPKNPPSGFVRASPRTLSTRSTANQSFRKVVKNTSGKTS
Description: (§1) 1. ROCK1 and ROCK2 kinase assays: The ROCK1 and ROCK2 kinase binding affinities of compounds in this invention were determined by DiscoverX's KINOMEscan™ KdELECT technology (https://www.discoverx.com/kinomescan-elect-kinase-screening-and-profiling-services): Kinase-tagged T7 phage strains were prepared in an E. coli host derived from the BL21 strain. E. coli were grown to log-phase and infected with T7 phage and incubated with shaking at 32° C. until lysis. The lysates were centrifuged and filtered to remove cell debris. The remaining kinases were produced in HEK-293 cells and subsequently tagged with DNA for qPCR detection. Streptavidin-coated magnetic beads were treated with biotinylated small molecule ligands for 30 minutes at room temperature to generate affinity resins for kinase assays. The liganded beads were blocked with excess biotin and washed with blocking buffer (SeaBlock (Pierce), 1% BSA, 0.05% Tween 20, 1 mM DTT) to remove unbound ligand and to reduce nonspecific binding. […] Test compounds were prepared as 111X stocks in 100% DMSO. Kds were determined using an 11-point 3-fold compound dilution series with three DMSO control points. […] The compounds were then diluted directly into the assays such that the final concentration of DMSO was 0.9%. All reactions performed in polypropylene 384-well plate. Each was a final volume of 0.02 ml. […] The kinase concentration in the eluates was measured by qPCR.

[2] = target: T2, ROCK2 (Homo sapiens, UniProt O75116); assay: ROCK2 kinase binding affinity, DiscoverX KINOMEscan KdELECT; conditions: for ROCK 2 Selectivity: ROCK2 over ROCK1, from Kd values, N/C = not calculated; for Kd: equilibrium dissociation constant, 11-point 3-fold dilution series, read-out: Kd (μM) ROCK2
T2 construct: purchased DiscoverX (KINOMEscan KdELECT service); host or cells: E. coli BL21-derived (T7 phage) or HEK-293
T2 sequence (O75116 whole entry): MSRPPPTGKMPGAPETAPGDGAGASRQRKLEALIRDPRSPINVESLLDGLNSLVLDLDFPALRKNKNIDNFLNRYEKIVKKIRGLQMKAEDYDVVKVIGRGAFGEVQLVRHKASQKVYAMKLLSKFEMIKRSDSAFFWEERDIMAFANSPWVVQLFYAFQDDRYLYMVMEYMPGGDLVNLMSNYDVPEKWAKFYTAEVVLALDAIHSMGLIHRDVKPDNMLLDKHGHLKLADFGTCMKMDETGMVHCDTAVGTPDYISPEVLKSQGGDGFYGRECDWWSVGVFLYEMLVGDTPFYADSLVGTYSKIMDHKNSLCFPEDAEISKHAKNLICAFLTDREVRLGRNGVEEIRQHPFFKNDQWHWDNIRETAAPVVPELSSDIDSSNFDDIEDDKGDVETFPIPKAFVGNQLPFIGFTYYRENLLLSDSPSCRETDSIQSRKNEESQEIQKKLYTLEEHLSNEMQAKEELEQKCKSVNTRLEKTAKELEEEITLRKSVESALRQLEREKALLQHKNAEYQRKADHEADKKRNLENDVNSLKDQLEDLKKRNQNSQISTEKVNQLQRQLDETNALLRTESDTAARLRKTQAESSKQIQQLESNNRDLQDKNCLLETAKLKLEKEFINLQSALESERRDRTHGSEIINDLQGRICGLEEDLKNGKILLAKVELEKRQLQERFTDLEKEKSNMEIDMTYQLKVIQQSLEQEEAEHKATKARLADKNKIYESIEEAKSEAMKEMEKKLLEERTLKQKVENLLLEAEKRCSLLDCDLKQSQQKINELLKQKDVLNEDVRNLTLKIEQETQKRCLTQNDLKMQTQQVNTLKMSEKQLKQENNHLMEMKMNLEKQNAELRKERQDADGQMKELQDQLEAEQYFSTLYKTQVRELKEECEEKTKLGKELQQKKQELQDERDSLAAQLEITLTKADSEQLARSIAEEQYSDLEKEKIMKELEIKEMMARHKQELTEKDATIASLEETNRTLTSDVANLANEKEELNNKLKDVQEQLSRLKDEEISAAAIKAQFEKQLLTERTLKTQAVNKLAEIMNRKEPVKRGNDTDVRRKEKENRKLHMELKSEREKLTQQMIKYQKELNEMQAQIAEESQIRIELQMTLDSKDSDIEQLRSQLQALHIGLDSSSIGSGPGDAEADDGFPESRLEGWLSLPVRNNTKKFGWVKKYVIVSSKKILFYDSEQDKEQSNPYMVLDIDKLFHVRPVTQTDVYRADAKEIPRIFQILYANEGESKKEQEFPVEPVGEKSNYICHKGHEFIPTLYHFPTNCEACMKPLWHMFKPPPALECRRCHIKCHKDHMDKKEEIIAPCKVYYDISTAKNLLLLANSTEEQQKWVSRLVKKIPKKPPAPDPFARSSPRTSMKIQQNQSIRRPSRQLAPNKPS
Description: as §1

SMILES	Kd [1]	ROCK 2 Selectivity [2]	Kd [2]
Brc1ccc2c(c1)CN(c1nccc(-c3nccc(C#Cc4ccc5[nH]ncc5c4)n3)n1)C2 [Ex. 30, 5-((2′-(5-Bromoisoindolin-2-yl)-[2,4′-bipyrimidin]-4-yl)ethynyl)-1H-indazole]	0.77 µM	132.8	0.0058 µM
Fc1ccc2c(c1)CN(c1nccc(-c3nccc(C#Cc4ccc5[nH]nc(F)c5c4)n3)n1)C2 [Ex. 31, 3-Fluoro-5-((2′-(5-fluoroisoindolin-2-yl)-[2,4′-bipyrimidin]-4-yl)ethynyl)-1H-indazole]	> 30 µM	>411	0.073 µM
Fc1ccc2c(c1)CN(c1nccc(-c3nccc(C#Cc4cnc5[nH]ncc5c4)n3)n1)C2 [Ex. 32, 5-((2′-(5-Fluoroisoindolin-2-yl)-[2,4′-bipyrimidin]-4-yl)ethynyl)-1H-pyrazolo[3,4-b]pyridine]	> 30 µM	>103	0.29 µM
COc1ccc2c(c1)CN(c1nccc(-c3nccc(C#Cc4cnc5[nH]ncc5c4)n3)n1)C2 [Ex. 33, 5-((2′-(5-Methoxyisoindolin-2-yl)-[2,4′-bipyrimidin]-4-yl)ethynyl)-1H-pyrazolo[3,4-b]pyridine]	> 30 µM	>44.1	0.68 µM
Fc1ccc2c(c1)CN(c1ccnc(-c3ccnc(C#Cc4ccc5[nH]ncc5c4)n3)n1)C2 [Ex. 34, 5-((4-(5-Fluoroisoindolin-2-yl)-[2,4′-bipyrimidin]-2′-yl)ethynyl)-1H-indazole]	0.089 µM	2.87	0.031 µM
C(#Cc1ccnc(-c2ccnc(N3Cc4c[nH]nc4C3)n2)n1)c1ccc2[nH]ncc2c1 [Ex. 35, 5-((2′-(2,6-Dihydropyrrolo[3,4-c]pyrazol-5(4H)-yl)-[2,4′-bipyrimidin]-4-yl)ethynyl)-1H-indazole]	> 30 µM	>417	0.072 µM
COCCN1CCN(c2cc3c(cn2)CN(c2nccc(-c4nccc(C#Cc5ccc6[nH]ncc6c5)n4)n2)C3)CC1 [Ex. 36, 5-((2′-(6-(4-(2-Methoxyethyl)piperazin-1-yl)-1,3-dihydro-2H-pyrrolo[3,4-c]pyridin-2-yl)-[2,4′-bipyrimidin]-4-yl)ethynyl)-1H-indazole trifluoroacetate salt]	0.069 µM	7.26	0.0095 µM
COCCOc1cc2c(cn1)CN(c1nccc(-c3nccc(C#Cc4ccc5[nH]ncc5c4)n3)n1)C2 [Ex. 37, 5-((2′-(6-(2-Methoxyethoxy)-1,3-dihydro-2H-pyrrolo[3,4-c]pyridin-2-yl)-[2,4′-bipyrimidin]-4-yl)ethynyl)-1H-indazole]	5.7 µM	51.8	0.11 µM
CN(C)C(=O)COc1cc2c(cn1)CN(c1nccc(-c3nccc(C#Cc4ccc5[nH]ncc5c4)n3)n1)C2 [Ex. 38, 2-((2-(4-((1H-indazol-5-yl)ethynyl)-[2,4′-bipyrimidin]-2′-yl)-2,3-dihydro-1H-pyrrolo[3,4-c]pyridin-6-yl)oxy)-N,N-dimethylacetamide]	2.8 µM	4.37	0.64 µM
CN(C)CCOc1ccc2c(c1)CN(c1nccc(-c3nccc(C#Cc4ccc5[nH]ncc5c4)n3)n1)C2 [Ex. 39, 2-((2-(4-((1H-Indazol-5-yl)ethynyl)-[2,4′-bipyrimidin]-2′-yl)isoindolin-5-yl)oxy)-N,N-dimethylethanamine]	0.67 µM	25.8	0.026 µM
CN1CCN(c2ccc3c(c2)CN(c2nccc(-c4nccc(C#Cc5ccc6[nH]ncc6c5)n4)n2)C3)CC1 [Ex. 40, 5-((2′-(5-(4-Methylpiperazin-1-yl)isoindolin-2-yl)-[2,4′-bipyrimidin]-4-yl)ethynyl)-1H-indazole]	12 µM	144	0.083 µM
CC1CN(c2ccc3c(c2)CN(c2nccc(-c4nccc(C#Cc5ccc6[nH]ncc6c5)n4)n2)C3)CCO1 (stereo not drawn) [Ex. 41, 4-(2-(4-((1H-Indazol-5-yl)ethynyl)-[2,4′-bipyrimidin]-2′-yl)isoindolin-5-yl)-2-methylmorpholine]	1.1 µM	45.8	0.024 µM
C(#Cc1ccnc(-c2ccnc(N3Cc4ccc(OCCN5CCOCC5)cc4C3)n2)n1)c1ccc2[nH]ncc2c1 [Ex. 42, 4-(2-((2-(4-((1H-Indazol-5-yl)ethynyl)-[2,4′-bipyrimidin]-2′-yl)isoindolin-5-yl)oxy)ethyl)morpholine]	0.64 µM	7.71	0.083 µM
CN(C)C(=O)COc1ccc2c(c1)CN(c1nccc(-c3nccc(C#Cc4ccc5[nH]ncc5c4)n3)n1)C2 [Ex. 43, 2-((2-(4-((1H-Indazol-5-yl)ethynyl)-[2,4′-bipyrimidin]-2′-yl)isoindolin-5-yl)oxy)-N,N-dimethylacetamide]	> 30 µM	>273	0.11 µM
CNC(=O)COc1ccc2c(c1)CN(c1nccc(-c3nccc(C#Cc4ccc5[nH]ncc5c4)n3)n1)C2 [Ex. 44, 2-((2-(4-((1H-Indazol-5-yl)ethynyl)-[2,4′-bipyrimidin]-2′-yl)isoindolin-5-yl)oxy)-N-methylacetamide]	0.075 µM	32.6	0.0023 µM
FC(F)(F)c1ccc2c(c1)CN(c1nccc(-c3nccc(C#Cc4ccc5[nH]ncc5c4)n3)n1)C2 [Ex. 45, 5-((2′-(5-(Trifluoromethyl)isoindolin-2-yl)-[2,4′-bipyrimidin]-4-yl)ethynyl)-1H-indazole trifluoroacetate]	0.1 µM	90.9	0.0011 µM
O=C(COc1ccc2c(c1)CN(c1nccc(-c3nccc(C#Cc4ccc5[nH]ncc5c4)n3)n1)C2)NC1CC1 [Ex. 46, 2-((2-(4-((1H-Indazol-5-yl)ethynyl)-[2,4′-bipyrimidin]-2′-yl)isoindolin-5-yl)oxy)-N-cyclopropylacetamide trifluoroacetate]	0.13 µM	56.5	0.0023 µM
COCCOc1ccc2c(c1)CN(c1nccc(-c3nccc(C#Cc4ccc5[nH]ncc5c4)n3)n1)C2 [Ex. 47, 5-((2′-(5-(2-Methoxyethoxy)isoindolin-2-yl)-[2,4′-bipyrimidin]-4-yl)ethynyl)-1H-indazole]	0.16 µM	51.6	0.0031 µM
C(#Cc1ccnc(-c2ccnc(N3CC(c4ccccc4)C3)n2)n1)c1ccc2[nH]ncc2c1 [Ex. 48, 5-((2′-(3-Phenylazetidin-1-yl)-[2,4′-bipyrimidin]-4-yl)ethynyl)-1H-indazole trifluoroacetate]	5.5 µM	36.7	0.15 µM
COC(=O)c1ccc(C2CN(c3nccc(-c4nccc(C#Cc5ccc6[nH]ncc6c5)n4)n3)C2)cc1 [Ex. 49, Methyl 4-(1-(4-((1H-indazol-5-yl)ethynyl)-[2,4′-bipyrimidin]-2′-yl)azetidin-3-yl)benzoate trifluoroacetate]	> 30 µM	>120	0.25 µM
N#Cc1ccc(C2CN(c3nccc(-c4nccc(C#Cc5ccc6[nH]ncc6c5)n4)n3)C2)cc1 [Ex. 50, 4-(1-(4-((1H-Indazol-5-yl)ethynyl)-[2,4′-bipyrimidin]-2′-yl)azetidin-3-yl)benzonitrile trifluoroacetate]	5.4 µM	45	0.12 µM
O=C(O)c1ccc(C2CN(c3nccc(-c4nccc(C#Cc5ccc6[nH]ncc6c5)n4)n3)C2)cc1 [Ex. 51, 4-(1-(4-((1H-Indazol-5-yl)ethynyl)-[2,4′-bipyrimidin]-2′-yl)azetidin-3-yl)benzoic acid]	11 µM	73	0.15 µM
C(#Cc1ccnc(-c2ccnc(N3CCN(c4ccccc4)CC3)n2)n1)c1ccc2[nH]ncc2c1 [Ex. 52, 5-((2′-(4-Phenylpiperazin-1-yl)-[2,4′-bipyrimidin]-4-yl)ethynyl)-1H-indazole]	9 µM	26.5	0.34 µM
Fc1ccc(N2CCN(c3nccc(-c4nccc(C#Cc5ccc6[nH]ncc6c5)n4)n3)CC2)cc1 [Ex. 53, 5-((2′-(4-(4-Fluorophenyl)piperazin-1-yl)-[2,4′-bipyrimidin]-4-yl)ethynyl)-1H-indazole]	4.7 µM	58.8	0.08 µM
CCCN1CCN(c2nccc(-c3nccc(C#Cc4ccc5[nH]ncc5c4)n3)n2)CC1 [Ex. 54, 5-((2′-(4-Propylpiperazin-1-yl)-[2,4′-bipyrimidin]-4-yl)ethynyl)-1H-indazole trifluoroacetate]	4.6 µM	10.2	0.45 µM
C(#Cc1ccnc(-c2ccnc(N3CCC(c4ccccc4)CC3)n2)n1)c1ccc2[nH]ncc2c1 [Ex. 55, 5-((2′-(4-Phenylpiperidin-1-yl)-[2,4′-bipyrimidin]-4-yl)ethynyl)-1H-indazole]	26 µM	28.9	0.9 µM
